Assays:
[1] = test system: Cx43 mRNA in ARPE-19 cells; test: Real-time reverse transcription PCR of Cx43 mRNA; format: cell-based, human; settings: 50 μM, 1 h, versus untreated and vehicle controls
Procedure: In the below Examples 3, 6 and 7 using human retinal epithelial (ARPE-19) cells, the cells were grown in DMEM/F: 12 (Invitrogen), supplemented with 10% fetal calf serum (FCS), 100 units/mL of penicillin, 100 μg/mL of streptomycin, and 0.25 μg/mL of Fungizone® Antimycotic (Invitrogen).
Real time reverse transcription PCR was used to determine the relative level of Cx43 mRNA. A confluent monolayer of ARPE-19 cells was treated with Tonabersat for 1 hour. Cells were harvested with TRIzol® (Life Technologies), and total RNA was isolated using […] according to manufacturer's instructions. All RNA samples were quantified using a nanodrop 1000 micro volume spectrophotometer (Thermo Scientific). cDNA from samples were synthesised using SuperScript® III First-Strand Synthesis SuperMix (Invitrogen) according to manufacturer's instructions. Primer sequences for hCx43, GenBank Accession No. M65188.1, were obtained from the Harvard Primer bank. […] The appropriate reference gene to be used for relative fold-difference in Cx43 mRNA was determined by screening commonly used house-keeping genes, ß-actin [ACTB], Hypoxanthine phosphoribosyltransferase 1 [HPRT1], peptidylprolyl isomerase A [PPIA], and glyceraldehyde-3-phosphate dehydrogenase [GAPDH]. […] Relative changes in Cx43 mRNA expression were calculated as fold-differences against ß-actin using the 2-ΔΔCt method. […]

[2] = molecular target: T1, hemichannel activity in HCMVEC cells (Homo sapiens, UniProt P17302); test: Whole-cell voltage clamp, hCMVEC cells; format: cell-based; settings: for hemichannel activity: 50 μM
T1 construct: isolated human cerebral microvascular endothelial cells (hCMVEC); endogenous in cells; host or cells: hCMVEC
Procedure: Whole-cell voltage clamp studies were conducted on connexin deficient HeLa cells, Connexin43 transfected HeLa cells and isolated human cerebral microvascular endothelial cells (hCMVEC).
HCMVEC Cells were placed into an extracellular artificial cerebral spinal fluid solution containing (in mM): 144 NaCl, 3.3 KCl, 1.8 CaCl2, 1.8 MgCl2, 10 mM glucose, pH: 7.385 at temperature 37° C. The intracellular pipette solution contained (in mM): 130 KCl, 10 sodium aspartate, 0.26 CaCl2, 2 EGTA, 5 tetraethylammonium-Cl, 1 MgCl2,3 MgATP, 5 Hepes at pH 7.2; and was kept on ice to prevent MgATP breakdown. Pipette resistance was 3.4MΩ with seal resistance=1.3 GΩ. Voltage and perfusion protocols are conducted simultaneously, with cells continuously perfused. Recordings for analysis were taken before Tonabersat perfusion, during and after washout. For channel block studies, 50 μM Tonabersat was washed in for three mins prior to recording, and subsequently washed out three mins before taking the washout recordings.

[3] = test system: hCMVEC cells; test: Scrape load assay (Lucifer yellow dye transfer); format: cell-based, human
Procedure: In the below Examples 2, 4, 5, 8 and 10 using human cerebral microvascular endothelial cells (hCMVEC), cells were prepared by growing them in collagen coated (30 μg/mL) T25 or T75 flasks maintained in Medium M199 supplemented with 10% FCS, 1 μg/mL hydrocortisone, 3 ng/mL hFGF, 1 ng/mL hEGF, 10 μg/mL heparin, 1× penicillin streptomycin neomycin (Life Technologies), and cAMP (100 μL 100% cAMP to 100 mL media). Cells were maintained at 37° C. with 95% O2 and 5% CO2.
In this Example, human cerebral microvascular endothelial cells (hCMVEC) were grown in collagen coated (1 μg/mL) T25 flasks maintained in Medium M199 supplemented with 10% FBS, 1 μg/mL hydrocortisone, 3 ng/mL hFGF, 1 ng/mL hEGF, 10 μg/mL heparin and cAMP (100 μL 100% cAMP to 100 mL media) in a humidified atmosphere at 37° C. with 5% CO2. One day prior to experimentation, these cells were trypsinized and plated at a density of 4×10^5 cells/well in a collagen-coated 12 well-plate in the same medium. For treatments, cells were cultured in the presence of peptide5, a control gap junction channel blocker (carbenoxolone), or tonabersat for the respective time intervals prior to scrape dye loading. The blockers were also present in the respective scrape loading solutions.
For scrape loading the hCMVEC cells were washed three times with phosphate buffered saline (PBS) (without divalent cations). A solution of PBS+0.05% lucifer yellow was added to cells. The cells then received a scrape to the monolayer using a size 10 carbon steel surgical blade and incubated in the dark at 37° C. with 5% CO2 for 5 minutes. The cells were washed with PBS four times and then 1 mL of PBS added for fluorescent microscopy.
The live cells were then imaged on a Nikon TE2000E fluorescent microscope whilst maintained in a chamber heated to 37° C. with 5% CO2. Three images pairs were obtained at 10× magnification for each of a phase contrast image to view total cells and a fluorescent image to visualize Lucifer yellow using 488 nm excitation and a GFP filter block. Gap junctional communication was determined by counting the number of Lucifer yellow positive cells and presented as a percentage to the positive cells of the control group. Data was graphed as mean+standard error of the mean using Prism v5.02 software. Significance was determined through students two-tailed, unpaired, T Tests. *=p<0.05, **=[…], ***=p<0.001.
An in vitro scrape-loading assay with extracellular Lucifer Yellow (LY), a fluorescent dye that is transferred only through coupled GJs was performed to test whether Tonabersat inhibits GJ communication (M. H. el-Fouly, et al., Experimental cell research 168, 422 (February, 1987)). A single scrape wound was made to a confluent monolayer of hCMVEC cells to enable LY dye to gain access to the cytoplasm of cells at the edge of the wounded region and allow the dye to transfer to adjacent cells through GJs.

T1 sequence (P17302 2-382): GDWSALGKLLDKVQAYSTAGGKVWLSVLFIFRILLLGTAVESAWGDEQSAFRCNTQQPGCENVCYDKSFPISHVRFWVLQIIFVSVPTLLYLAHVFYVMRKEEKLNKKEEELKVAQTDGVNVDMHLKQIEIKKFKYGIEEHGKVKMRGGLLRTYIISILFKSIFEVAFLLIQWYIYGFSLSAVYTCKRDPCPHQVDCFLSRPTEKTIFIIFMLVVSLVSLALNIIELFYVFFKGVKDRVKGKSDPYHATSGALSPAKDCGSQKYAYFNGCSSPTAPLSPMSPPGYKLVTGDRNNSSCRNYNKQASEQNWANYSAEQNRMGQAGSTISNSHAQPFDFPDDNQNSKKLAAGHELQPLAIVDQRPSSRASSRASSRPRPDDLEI

CC(=O)c1ccc2c(c1)[C@H](NC(=O)c1ccc(F)c(Cl)c1)[C@H](O)C(C)(C)O2 [Tonabersat, N-[(3S,4S)-6-acetyl-3-hydroxy-2,2-dimethyl-3,4-dihydrochromen-4-yl]-3-chloro-4-fluorobenzamide]
Cx43 mRNA level relative to ß-actin [1]: no significant difference in Cx43 mRNA
time to block connexin hemichannels [2]: within one minute
hemichannel activity ([2]; after three minutes of washout): some activity returning after washout
hemichannel activity ([2]; during incubation): almost completely abolishes hemichannel activity
concentration at which GJs are uncoupled [3]: ≥ 50 µM
time to gap junction uncoupling effect ([3]; 50 μM): ≤ 1 min
gap junction uncoupling (LY dye transfer) ([3]; 50 μM added immediately): did not significantly reduce GJ coupling
gap junction uncoupling (LY dye transfer) ([3]; 50 μM added immediately, listed as tonabersat): statistically significant gap junction uncoupling effect
gap junction uncoupling (LY dye transfer) ([3]; 50 μM, 1 hour prior to the assay): did not significantly reduce GJ coupling
LY positive cells compared to control ([3]; 50 μM, 2 hours): 72.5±7.4%
LY positive cells compared to control ([3]; 50 μM, 6 hours): 62.8±7.4%
LY positive cells compared to control ([3]; 50 μM, 24 hours): 50.5±8.4%
LY positive cells compared to control ([3]; 100 μM): 46.7±7.8%
LY positive cells compared to control ([3]; 0.1, 1 and 10 μM, 2 hours): no significant reduction in LY positive cells
LY positive cells compared to control ([3]; 0.1, 1 and 10 μM, 24 hours): no significant reduction in LY positive cells

Reference: patent publication US11401516B2, “Channel modulators” (AUCKLAND UNISERVICES LIMITED, priority 2014, dated 2022)
